1 molecule from patent publication US20070167438A1, “Treatment of substance abuse” (Wyeth, priority 2006, published 2007) can be followed below.

The test relates to Rats. Kind of test: Open field locomotor activity (distance moved, zones crossed) with or without cocaine. Type of test: in vivo. As to conditions: open field 1 hour after dosing, five minute test. The method, then:
Using (9aR,12aS)-4,5,6,7,9,9a,10,11,12,12a-decahydrocyclopenta[c][1,4]diazepino[6,7,1-ij]quinoline hydrochloride (Compound 1) as an example, the Rats were dosed either with vehicle or with cocaine in the presence or absence of Compound 1 (1.7 mg/kg. sc). One hour after dosing (i.p. & s.c.), rats were put in a open field, where distance moved and zones crossed were recorded by the ethovision program.
Animals were brought to the lab room 1 hour before the start of the experiment. Rats were injected with compound(s) 1 hour before being placed in the open field. Rats were then placed in open field, and the test lasted for five minutes.

As for `Cl.c1cc2c3c(c1)[C@H]1CCC[C@H]1CN3CCNC2` [Compound 1, (9aR,12aS)-4,5,6,7,9,9a,10,11,12,12a-decahydrocyclopenta[c][1,4]diazepino[6,7,1-ij]quinoline hydrochloride], the “reversal of the hyperactivity produced by cocaine” value (Compound 1 1.7 mg/kg sc + cocaine 3 mg/kg ip) is reported as “completely reversed”. Moreover, the “effect on locomotor activity alone” value (Compound 1 1.7 mg/kg sc + vehicle) is given as “no effect”.
